{
  "source": "patent US12043632B2",
  "about": "“6-heteroaryloxy benzimidazoles and azabenzimidazoles as JAK2 inhibitors” (Ajax Therapeutics, Inc., priority 2020, dated 2024)",
  "data": [
    {"target": "T1, JAK2 (JH1domain-catalytic, Y1007F,Y1008F) kinase (Homo sapiens, UniProt O60674, Y1007F/Y1008F)", "T1 construct": "JAK2 (JH1domain-catalytic, Y1007F,Y1008F) kinase was expressed as N-terminal fusion; made in house; host or cells: transiently transfected HEK293 cells", "T1 sequence (O60674 849-1124 Y1007F/Y1008F limits assumed)": "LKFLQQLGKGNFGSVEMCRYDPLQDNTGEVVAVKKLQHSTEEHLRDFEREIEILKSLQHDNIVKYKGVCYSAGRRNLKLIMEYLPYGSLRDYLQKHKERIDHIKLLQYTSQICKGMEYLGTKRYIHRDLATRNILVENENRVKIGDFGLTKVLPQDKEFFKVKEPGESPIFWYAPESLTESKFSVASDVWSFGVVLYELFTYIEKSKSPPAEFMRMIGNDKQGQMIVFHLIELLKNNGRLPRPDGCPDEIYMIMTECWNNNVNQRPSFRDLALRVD", "assay": "JAK2 JH1 Domain Binding Assay", "conditions": "qPCR readout", "units": {"Kd": "nM"}, "values": [
      {"molecule": "Cn1c(Nc2cc(C(C)(C)C)n([C@H]3COC[C@@H]3O)n2)nc2ncc(Oc3cnn4ccnc4c3)c(Cl)c21", "note": "(single isomer, unassigned) [Example I-23]", "Kd": "10 to 50"},
      {"molecule": "Cn1c(Nc2cc(C(C)(C)C)n([C@@H]3COC[C@H]3O)n2)nc2ncc(Oc3cnn4ccnc4c3)c(Cl)c21", "note": "(single isomer, unassigned) [Example I-24]", "Kd": "50 to 1000"},
      {"molecule": "CC(O)Cn1nc(Nc2nc3ncc(Oc4cnn5ccncc45)c(Cl)c3n2C)cc1C(C)(C)C", "note": "(single isomer, unassigned) [Example I-37]", "Kd": "< 10"},
      {"molecule": "C[C@@H](O)Cn1nc(Nc2nc3ncc(Oc4cnn5ccncc45)c(Cl)c3n2C)cc1C(C)(C)C", "note": "(single isomer, unassigned) [Example I-38]", "Kd": "< 10"},
      {"molecule": "Cn1c(Nc2cc(C(C)(C)C)n([C@@H]3CCOC34CC4)n2)nc2ncc(Oc3cnn4ccncc34)c(Cl)c21", "note": "(single isomer, unassigned) [Example I-41-a]", "Kd": "< 10"},
      {"molecule": "Cn1c(Nc2cc(C(C)(C)C)n([C@@H]3CCOC34CC4)n2)nc2ncc(Oc3cnn4ccncc34)c(Cl)c21", "note": "(single isomer, unassigned) [Example I-41-b]", "Kd": "< 10"},
      {"molecule": "Cn1c(Nc2cc(C(C)(C)C)n(C3COCC3O)n2)nc2ncc(Oc3cnn4ccncc34)c(Cl)c21", "note": "(single isomer, unassigned) [Example I-47]", "Kd": "< 10"},
      {"molecule": "Cn1c(Nc2cc(C(C)(C)C)n(C3COCC3O)n2)nc2ncc(Oc3cnn4ccncc34)c(Cl)c21", "note": "(single isomer, unassigned) [Example I-48]", "Kd": "< 10"},
      {"molecule": "Cn1c(Nc2nc([C@H]3CCOC3)c(C(C)(C)C)s2)nc2ncc(Oc3cnn4ccnc4c3)c(Cl)c21", "note": "(single isomer, unassigned) [Example I-56-a]", "Kd": "10 to 50"},
      {"molecule": "Cn1c(Nc2nc([C@@H]3CCOC3)c(C(C)(C)C)s2)nc2ncc(Oc3cnn4ccnc4c3)c(Cl)c21", "note": "(single isomer, unassigned) [Example I-56-b]", "Kd": "10 to 50"},
      {"molecule": "Cn1c(Nc2cc(C(C)(C)C)n([C@H]3CCC[C@H]3O)n2)nc2ncc(Oc3cnn4ccncc34)c(Cl)c21", "note": "(single isomer, unassigned) [Example I-60-a]", "Kd": "10 to 50"},
      {"molecule": "Cn1c(Nc2cc(C(C)(C)C)n([C@@H]3CCC[C@@H]3O)n2)nc2ncc(Oc3cnn4ccncc34)c(Cl)c21", "note": "(single isomer, unassigned) [Example I-60-b]", "Kd": "< 10"},
      {"molecule": "COc1c(Oc2cnn3ccncc23)cnc2nc(Nc3cc(C(C)(C)C)n([C@H]4CCC[C@H]4O)n3)n(C)c12", "note": "(single isomer, unassigned) [Example I-69-a]", "Kd": "50 to 1000"},
      {"molecule": "COc1c(Oc2cnn3ccncc23)cnc2nc(Nc3cc(C(C)(C)C)n([C@@H]4CCC[C@@H]4O)n3)n(C)c12", "note": "(single isomer, unassigned) [Example I-69-b]", "Kd": "10 to 50"},
      {"molecule": "Cn1c(Nc2cc(C(C)(C)C)n([C@H]3CCC[C@H]3O)n2)nc2ncc(Oc3cnn4ccncc34)c(C(F)F)c21", "note": "(single isomer, unassigned) [Example I-71-a]", "Kd": "50 to 1000"},
      {"molecule": "Cn1c(Nc2cc(C(C)(C)C)n([C@@H]3CCC[C@@H]3O)n2)nc2ncc(Oc3cnn4ccncc34)c(C(F)F)c21", "note": "(single isomer, unassigned) [Example I-71-b]", "Kd": "10 to 50"},
      {"molecule": "COc1c(Oc2cnn3ccncc23)cnc2nc(Nc3cc(C4CC4)cn([C@@H]4CCCOC4)c3=O)n(C)c12", "note": "(single isomer, unassigned) [Example I-72-a]", "Kd": "< 10"},
      {"molecule": "COc1c(Oc2cnn3ccncc23)cnc2nc(Nc3cc(C4CC4)cn([C@H]4CCCOC4)c3=O)n(C)c12", "note": "(single isomer, unassigned) [Example I-72-b]", "Kd": "< 10"},
      {"molecule": "Cn1c(Nc2cc(C3CC3)cn([C@H]3CCCOC3)c2=O)nc2ncc(Oc3cnn4ccncc34)c(Cl)c21", "note": "(single isomer, unassigned) [Example I-73-a]", "Kd": "< 10"},
      {"molecule": "Cn1c(Nc2cc(C3CC3)cn([C@@H]3CCCOC3)c2=O)nc2ncc(Oc3cnn4ccncc34)c(Cl)c21", "note": "(single isomer, unassigned) [Example I-73-b]", "Kd": "< 10"},
      {"molecule": "Cn1c(Nc2cc(C(C)(C)C)n([C@H]3COC[C@@H]3O)n2)nc2ncc(Oc3cnc4cnc(C5CC5)n4c3)c(Cl)c21", "note": "(single isomer, unassigned) [Example I-76-a]", "Kd": "10 to 50"},
      {"molecule": "Cn1c(Nc2cc(C(C)(C)C)n([C@@H]3COC[C@H]3O)n2)nc2ncc(Oc3cnc4cnc(C5CC5)n4c3)c(Cl)c21", "note": "(single isomer, unassigned) [Example I-76-b]", "Kd": "10 to 50"},
      {"molecule": "C[C@H](CO)Cn1cc(C2CC2)cc(Nc2nc3ncc(Oc4cnn5ccncc45)c(Cl)c3n2C)c1=O", "note": "(single isomer, unassigned) [Example I-81-a]", "Kd": "< 10"},
      {"molecule": "C[C@@H](CO)Cn1cc(C2CC2)cc(Nc2nc3ncc(Oc4cnn5ccncc45)c(Cl)c3n2C)c1=O", "note": "(single isomer, unassigned) [Example I-81-b]", "Kd": "< 10"},
      {"molecule": "Cn1c(Nc2cc(C(C)(C)C)n([C@H]3COC[C@@H]3O)n2)nc2ncc(Oc3cnc4cnc(C5CC5)n4c3)c(C(F)F)c21", "note": "(single isomer, unassigned) [Example I-93-a]", "Kd": "10 to 50"},
      {"molecule": "Cn1c(Nc2cc(C(C)(C)C)n([C@@H]3COC[C@H]3O)n2)nc2ncc(Oc3cnc4cnc(C5CC5)n4c3)c(C(F)F)c21", "note": "(single isomer, unassigned) [Example I-93-b]", "Kd": "50 to 1000"},
      {"molecule": "Cn1c(Nc2cc(C3CC3)cn([C@H]3CC[C@@H]3O)c2=O)nc2ncc(Oc3cnn4ccncc34)c(Cl)c21", "note": "(single isomer, unassigned) [Example I-95-a]", "Kd": "< 10"},
      {"molecule": "Cn1c(Nc2cc(C3CC3)cn([C@@H]3CC[C@H]3O)c2=O)nc2ncc(Oc3cnn4ccncc34)c(Cl)c21", "note": "(single isomer, unassigned) [Example I-95-b]", "Kd": "< 10"},
      {"molecule": "Cn1c(Nc2cc(C3CC3)cn([C@@H]3CC[C@@H]3O)c2=O)nc2ncc(Oc3cnn4ccncc34)c(Cl)c21", "note": "(single isomer, unassigned) [Example I-98-a]", "Kd": "< 10"},
      {"molecule": "Cn1c(Nc2cc(C3CC3)cn([C@H]3CC[C@H]3O)c2=O)nc2ncc(Oc3cnn4ccncc34)c(Cl)c21", "note": "(single isomer, unassigned) [Example I-98-b]", "Kd": "< 10"},
      {"molecule": "Cn1c(Nc2cc(C3CC3)cn([C@H]3CC[C@@H]3O)c2=O)nc2ncc(Oc3cnn4ccccc34)c(Cl)c21", "note": "(single isomer, unassigned) [Example I-99-a]", "Kd": "< 10"},
      {"molecule": "Cn1c(Nc2cc(C3CC3)cn([C@@H]3CC[C@H]3O)c2=O)nc2ncc(Oc3cnn4ccccc34)c(Cl)c21", "note": "(single isomer, unassigned) [Example I-99-b]", "Kd": "< 10"},
      {"molecule": "COc1c(Oc2cnn3ccccc23)cnc2nc(Nc3cc(C4CC4)cn([C@H]4CCCOC4)c3=O)n(C)c12", "note": "(single isomer, unassigned) [Example I-101-a]", "Kd": "< 10"},
      {"molecule": "COc1c(Oc2cnn3ccccc23)cnc2nc(Nc3cc(C4CC4)cn([C@@H]4CCCOC4)c3=O)n(C)c12", "note": "(single isomer, unassigned) [Example I-101-b]", "Kd": "< 10"},
      {"molecule": "COc1c(Oc2cnn3ccncc23)cnc2nc(Nc3cc(C4CC4)cn([C@@H]4CC[C@@H]4O)c3=O)n(C)c12", "note": "(single isomer, unassigned) [Example I-104-a]", "Kd": "< 10"},
      {"molecule": "COc1c(Oc2cnn3ccncc23)cnc2nc(Nc3cc(C4CC4)cn([C@H]4CC[C@H]4O)c3=O)n(C)c12", "note": "(single isomer, unassigned) [Example I-104-b]", "Kd": "< 10"},
      {"molecule": "Cn1c(Nc2cc(C(F)(F)F)cn([C@H]3CC[C@@H]3O)c2=O)nc2ncc(Oc3cnn4ccncc34)c(Cl)c21", "note": "(single isomer, unassigned) [Example I-105-a]", "Kd": "< 10"},
      {"molecule": "Cn1c(Nc2cc(C(F)(F)F)cn([C@@H]3CC[C@H]3O)c2=O)nc2ncc(Oc3cnn4ccncc34)c(Cl)c21", "note": "(single isomer, unassigned) [Example I-105-b]", "Kd": "< 10"},
      {"molecule": "Cn1c(Nc2cc(C(F)(F)F)cn([C@@H]3CCCOC3)c2=O)nc2ncc(Oc3cnn4ccncc34)c(Cl)c21", "note": "(single isomer, unassigned) [Example I-107-a]", "Kd": "< 10"},
      {"molecule": "Cn1c(Nc2cc(C(F)(F)F)cn([C@H]3CCCOC3)c2=O)nc2ncc(Oc3cnn4ccncc34)c(Cl)c21", "note": "(single isomer, unassigned) [Example I-107-b]", "Kd": "< 10"},
      {"molecule": "COc1c(Oc2cnn3ccncc23)cnc2nc(Nc3cc(C4CC4)cn([C@H]4CC[C@@H]4O)c3=O)n(C)c12", "note": "(single isomer, unassigned) [Example I-110-a]", "Kd": "< 10"},
      {"molecule": "COc1c(Oc2cnn3ccncc23)cnc2nc(Nc3cc(C4CC4)cn([C@@H]4CC[C@H]4O)c3=O)n(C)c12", "note": "(single isomer, unassigned) [Example I-110-b]", "Kd": "10 to 50"},
      {"molecule": "COc1c(Oc2cnn3ccncc23)cnc2nc(Nc3cc(C(F)(F)F)cn([C@H]4CC[C@@H]4O)c3=O)n(C)c12", "note": "(single isomer, unassigned) [Example I-113-a]", "Kd": "10 to 50"},
      {"molecule": "COc1c(Oc2cnn3ccncc23)cnc2nc(Nc3cc(C(F)(F)F)cn([C@@H]4CC[C@H]4O)c3=O)n(C)c12", "note": "(single isomer, unassigned) [Example I-113-b]", "Kd": "10 to 50"},
      {"molecule": "Cn1c(Nc2cc(C3CC3)cn([C@@H]3CC[C@@H]3O)c2=O)nc2ncc(Oc3cnn4ccccc34)c(Cl)c21", "note": "(single isomer, unassigned) [Example I-114-a]", "Kd": "< 10"},
      {"molecule": "Cn1c(Nc2cc(C3CC3)cn([C@H]3CC[C@H]3O)c2=O)nc2ncc(Oc3cnn4ccccc34)c(Cl)c21", "note": "(single isomer, unassigned) [Example I-114-b]", "Kd": "< 10"},
      {"molecule": "Cn1c(Nc2cc(C(F)(F)F)cn([C@@H]3CC[C@@H]3O)c2=O)nc2ncc(Oc3cnn4ccncc34)c(Cl)c21", "note": "(single isomer, unassigned) [Example I-119-a]", "Kd": "< 10"},
      {"molecule": "Cn1c(Nc2cc(C(F)(F)F)cn([C@H]3CC[C@H]3O)c2=O)nc2ncc(Oc3cnn4ccncc34)c(Cl)c21", "note": "(single isomer, unassigned) [Example I-119-b]", "Kd": "< 10"},
      {"molecule": "COc1c(Oc2cnn3ccncc23)cnc2nc(Nc3cc(C4CC4)cn([C@@H](C)CC#N)c3=O)n(C)c12", "note": "(single isomer, unassigned) [Example I-121-a]", "Kd": "< 10"},
      {"molecule": "COc1c(Oc2cnn3ccncc23)cnc2nc(Nc3cc(C4CC4)cn([C@H](C)CC#N)c3=O)n(C)c12", "note": "(single isomer, unassigned) [Example I-121-b]", "Kd": "< 10"}
    ]}
  ]
}
